Data as given in patent US20180085371A1, “COMBINATION OF PANOBINOSTAT AND RUXOLITINIB IN THE TREATMENT OF CANCER SUCH AS A MYELOPROLIFERATIVE NEOPLASM” (Novartis AG, priority 2011, published 2018).
Values joined by “and” are separate entries in the source; they are usually repeats but may differ in a detail not shown here. Identical values can stand only once. Like-named read-outs stand apart in the source and are kept apart here.

Columns and labels:
[1] = Levels post therapy, Example B (UPLC/MS-MS, blood and tissues); type: in vivo, mouse; conditions: mean, N = 9; for concentration at 2 h: Balb/c, mouse, blood, read-out: Blood level 2 hr after final dose
Procedure: (§1) Concentrations of Compound A and Compound B in plasma and tissues were determined simultaneously by an UPLC/MS-MS assay. Tissues were homogenized in an equal volume of HPLC-Water (Water for chromatography, Merck) using the Fast Prep®-24 system (M.P. Biomedicals, Irvine, Calif., USA). Following addition of 25 μl of internal standard mixture (1 μg/ml) to analytical aliquots (25 μl) of blood or tissues homogenate, the proteins were precipitated by the addition of 200 μl acetonitrile. The supernatant were transferred in a fresh vial. After evaporation to dryness the samples were re-dissolved in 60 μl acetonitrile/water (1/1 v/v). An aliquot (5 μl) of this solution was separated on a ACQUITY UPLC BEH C18 column (Waters™ 1.7 μm particle size, 2.1×50 mm) with a mobile phase consisting of a mixture of 0.1% formic acid in water (solvent A) and 0.1% formic acid in acetonitrile (solvent B). Gradient programming was used with a flow rate of 600 μl/min. After equilibration with 95% solvent A, 5 μl of sample was injected. Following a latency period of 0.25 min., the sample was eluted with a linear gradient of 5-100% solvent B over a period of 0.65 minutes followed by a 0.35 min. hold. The column was prepared for the next sample by re-equilibrating over 0.25 min. to the starting conditions. The column eluent was directly introduced into the ion source of the triple quadrupole mass spectrometer TQDTM (Waters Corporation, Milford, Mass., USA) controlled by Masslynx™ 4.1 software. Electrospray positive ionization (ESI+) multiple reaction monitoring was used for the MS/MS detection of the analyte. Precursor to product ion transition of 307.0→m/z 186.0 for Compound A was used. Simultaneously precursor to product ion transition of 350.1→m/z 142.9 for Compound B was recorded. The limit of quantification (LOQ) for both compounds was set to 9 ng/ml and 9 ng/g for plasma and tissues, respectively (CV and overall bias less than 30%). Regression analysis and further calculations were performed using QuanLynx™ 4.1 (Micromass) and Excel™ 2007 (Microsoft). Concentrations of unknown samples were back-calculated based on the peak area ratios of analyte/IS from a calibration curve constructed using calibration samples spiked in blank blood or tissue obtained from animals treated with vehicle.

[2] = PK analysis 2 hours post-therapy, Example A (blood and tissue levels); type: in vivo, mouse; conditions: mean; for BM level 2 hr post-therapy: BM levels to be taken with caution
Procedure: 2 hours after last dose for Compound A;
2 hours after last dose for Compound B; • Spleen weight is recorded at sacrifice. • Samples collected and snap frozen in liquid nitrogen and then kept at −80° C. until analysis: • spleen, BM, blood and liver for PK analysis • spleen for PD marker analysis (p-STATS (Compound A) and protein acetylation (Compound B)), • sternum for PD marker analysis (p-STATS (Compound A).
as §1

[3] = system: JAK2V617F bone marrow transduced cells; assay: Histology of bone marrow and spleen (cellularity, splenic architecture, reticulin fibrosis) in JAK2V617F bone marrow transplant model; type: in vivo, mouse; conditions: 21 days; for Bone marrow hypercellularity / Splenic architecture: Compound B 8 mg/kg, Compound A 60 mg/kg or both; for Bone marrow hypercellularity: rank Combo>Compound A=Compound B; for Splenic architecture: rank Combo>Compound A>Compound B
Text: and spleens were collected, fixed in formalin, trimmed, embedded in paraffin and sectioned at (nominally) 4 μm using a microtome. […] Briefly, the spleen was removed in total, weighed and placed on a dissection tray. The spleen was cut transverse in two halves and two equal pieces were taken from the middle parts using a scalpel. […] Baker, Medite, Switzerland). Fixative volume was at least tenfold in excess compared to tissue volume. […] After a last wash in PBS, the tissues were cut up and set with the surface of interest downwards in a universal histocassette followed by processing in a TPC 15Duo (Tissue Processing Center) for paraffinization. From each tissue paraffin block, several 3 μm thick sections were cut on a sliding or rotary microtome (Mikrom International AG, Switzerland), spread in a 45° C. water-bath, mounted on microscope slides (Polysine, VWR International, Leuven, Belgium), and air-dried in an oven at 37° C. overnight. Dry tissue section slides were taken out of the oven and placed in the slide rack of the linear stainer COT20 (Medite, Switzerland) for fully automated H&E (Haematoxylin &Eosin) staining or processed for immunohistochemistry (IHC) staining. For IHC, tissue section samples were stained with rabbit anti-phospho STAT5 antibody (clone C11C5), and rabbit anti-acetyl Histone H3 antibody (Millipore, MA, USA) coverslipped and air-dried. […] Splenic architecture was evaluated as destroyed (1+) or preserved (0). Presence of myeloid, erythroid and adipocytes cells was evaluated as 0, 1+, 2+, 3+ based on cellularity. […] Whole slide automated quantitative assessment of p-STAT5-positive and -negative cell nuclei were performed using Definiens eCognition software (eCognition version XD 1.5, Definiens AG, Germany). The results were expressed as percent of positive p-STAT5 nuclei out of total nuclei.

[4] = Body weight change in JAK2V617F bone marrow transplant model; conditions: sacrifice day after 21 days; Compound B 8 mg/kg ip 3 times a week, Compound A 60 mg/kg po q12h, or Combo of both
Procedure: Animals were monitored daily and sacrificed in case of major signs of distress (excessive body weight loss over more than 2 consecutive days without improvement, combined with lethargy and piloerection).
Results shown in the figures and tables represent means±SEM. Percentage change in body weights and absolute values or transformed values (log10, or other as specified) for spleen weights, reticulocyte, WBC counts, Hct and histological data were analyzed by unpaired t-test or Rank-Sum test to compare a single treatment group to vehicle group or one way ANOVA followed by Dunnett's test to compare treatment groups to vehicle group. Multiple comparisons were done using the Tukey's test. All comparisons were done on sacrifice day. The significance level was set to p<0.05. Calculations were performed using GraphPad Prism for Windows (GraphPad Software Inc.).
Mice were randomized on day 27 post BMT based on Hct values (67% in average in this experiment, N=9/group) and treated with Compound B (8 mg/kg, 3×/week MWF, i.p.) and Compound A (60 mg/kg, q12h, p.o.) as single agents or combined.

[5] = Combo Compound A (60 mg/kg) and B (8 mg/kg)
[6] = single agent: Comp'd B 8 mg/kg or Comp'd A 60 mg/kg
[7] = treatment Compound A 60 mg/kg + Compound B 4 mg/kg
[8] = treatment Compound A 60 mg/kg + Compound B 8 mg/kg
[9] = treatment Compound A 60 mg/kg + Compound B 12 mg/kg

| SMILES | concentration at 2 h [1, 5] | concentration at 2 h [1, 6] | BM level 2 hr after final dose [1, 5] | Liver level 2 hr after final dose [1, 5] | Spleen level 2 hr after final dose [1, 5] | BM level 2 hr after final dose [1, 6] | Liver level 2 hr after final dose [1, 6] | Spleen level 2 hr after final dose [1, 6] | Blood level 2 hr post-therapy [2, 7] | Liver level 2 hr post-therapy [2, 7] | Spleen level 2 hr post-therapy [2, 7] | BM level 2 hr post-therapy [2, 7] | Blood level 2 hr post-therapy [2, 8] | Liver level 2 hr post-therapy [2, 8] | Spleen level 2 hr post-therapy [2, 8] | BM level 2 hr post-therapy [2, 8] | Blood level 2 hr post-therapy [2, 9] | Liver level 2 hr post-therapy [2, 9] | Spleen level 2 hr post-therapy [2, 9] | BM level 2 hr post-therapy [2, 9] | further results |
| --- | --- | --- | --- | --- | --- | --- | --- | --- | --- | --- | --- | --- | --- | --- | --- | --- | --- | --- | --- | --- | --- |
| N#CC[C@H](C1CCCC1)n1cc(-c2ncnc3[nH]ccc23)cn1 [Compound A, (R)-3-(4-(7H-pyrrolo[2,3-d]pyrimidin-4-yl)-1H-pyrazol-1-yl)-3-cyclopentylpropanenitrile] | 4110 nM | 8180 nM | 1.469 nmol/g | 3.568 nmol/g | 1.575 nmol/g | 2.223 nmol/g | 6.537 nmol/g | 2.566 nmol/g | 2780 nM | 3.49 + nmol/g | 1.15 + nmol/g | 2.59 + nmol/g | 2230 nM | 2.91 nmol/g | 1.02 nmol/g | 1.92 nmol/g | 2720 nM | 3.87 nmol/g | 1.61 nmol/g | 2.29 nmol/g | Blood level 2 hr post-therapy ([2]; treatment Compound A 60 mg/kg): 1960 nM; Liver level 2 hr post-therapy ([2]; treatment Compound A 60 mg/kg): 4.54 nmol/g; Spleen level 2 hr post-therapy ([2]; treatment Compound A 60 mg/kg): 1.28 nmol/g; BM level 2 hr post-therapy ([2]; treatment Compound A 60 mg/kg): 1.40 + nmol/g; Fibrosis score (reticulin staining on sternum sections) ([3]; Compound A 60 mg/kg or combination with Compound B 8 mg/kg, high variability): tendency to reduce; Bone marrow hypercellularity [3]: decrease; Splenic architecture [3]: improved; BW change (%) (mean ± SEM) [4]: 0.45% |
| Cc1[nH]c2ccccc2c1CCNCc1ccc(/C=C/C(=O)NO)cc1 [Compound B, N-hydroxy-3-[4-[[[2-(2-methyl-1H-indol-3-yl)-ethyl]-amino]methyl]phenyl]-2E-2-propenamide] | 6 nM | 35 nM | 4.398 nmol/g | 0.33 nmol/g | 15.317 nmol/g | 2.704 nmol/g | 0.264 nmol/g | 10.045 nmol/g | 20 nM | 0.30 + nmol/g | 2.80 + nmol/g | 6.15 + nmol/g | 30 nM | 0.32 nmol/g | 3.02 nmol/g | 8.43 nmol/g | 20 nM | 0.71 nmol/g | 4.51 nmol/g | 9.81 nmol/g | Blood level 2 hr post-therapy ([2]; treatment Compound B 4 mg/kg): BLQ; Liver level 2 hr post-therapy ([2]; treatment Compound B 4 mg/kg): 0.18 nmol/g; Spleen level 2 hr post-therapy ([2]; treatment Compound B 4 mg/kg): 1.40 nmol/g; BM level 2 hr post-therapy ([2]; treatment Compound B 4 mg/kg): 3.34 nmol/g; Blood level 2 hr post-therapy ([2]; treatment Compound B 8 mg/kg): BLQ; Liver level 2 hr post-therapy ([2]; treatment Compound B 8 mg/kg): 0.25 nmol/g; Spleen level 2 hr post-therapy ([2]; treatment Compound B 8 mg/kg): 2.07 nmol/g; BM level 2 hr post-therapy ([2]; treatment Compound B 8 mg/kg): 3.17 nmol/g; Blood level 2 hr post-therapy ([2]; treatment Compound B 12 mg/kg): BLQ; Liver level 2 hr post-therapy ([2]; treatment Compound B 12 mg/kg): 0.63 nmol/g; Spleen level 2 hr post-therapy ([2]; treatment Compound B 12 mg/kg): 3.64 nmol/g; BM level 2 hr post-therapy ([2]; treatment Compound B 12 mg/kg): 7.32 nmol/g; Bone marrow hypercellularity [3]: decrease; Splenic architecture [3]: improved; BW change (%) (mean ± SEM) [4]: −5% and −4.57% |
